Test results from patent US6890951B2, “Treatment of addiction and addiction-related behavior” (Brookhaven Science Associates LLC, priority 1998, dated 2005).
Like-named read-outs stand apart in the source and are kept apart here.

Key:
male Sprague-Dawley rats [1] = assay type: in vivo
From the text: In all rodent studies, male Sprague-Dawley rats were used (200-225 g, Taconic farms, Germantown, N.Y.). Animals were allowed to acclimate to the animal housing facility for at least 5 days prior to beginning the experiments. […] The conditioning procedure for the acquisition phase consisted of 12 sessions carried out consecutively over 12 days.
The animals in each group were randomly assigned to a 2×2 factorial design with one factor being the pairing chamber and the other factor being the order of conditioning. The animals that received either saline or cocaine were injected and confined to the appropriate compartment for 30 minutes.
[…] The amount of time spent in each chamber was recorded using an automated infrared beam electronically coupled to a timer.
In this example the procedure outlined in Section 2 of Materials and Methods was followed.

male F344 rats = details: cited from earlier work
male Sprague-Dawley rats [2] = assay: Food-induced conditioned place preference; assay type: in vivo
From the text: In order to test food-induced CPP in rodents, four groups of rats were allowed access to food ad libitum during the entire 12 session of CPP procedure. The 12 session CPP procedure was exactly the same as the procedure used in the cocaine induced CPP studies except the appetitive substance was food rather than cocaine. […] The animals in all four groups were habituated to Froot Loops, a fruit-flavored breakfast cereal that is very appealing to laboratory rats, in the appropriate chamber in the test room during four habituating sessions. […] The amount of time spent in the paired and unpaired chambers was recorded using an automated device.
In this example the procedure outlined in Section 3 of Materials and Methods was followed.

freely moving rats = assay: Cocaine-induced stereotypy after a sensitizing regimen of cocaine; assay type: in vivo
Method: The phenomenon of sensitization is observed with virtually all drugs of addiction. Sensitization is believed to play a role in the etiology of addiction.
Animals received 15 mg/kg i.p. of cocaine and stereotypy was determined in standard locomotor cages. For 6 consecutive days, animals received 15 mg/kg i.p. of cocaine once a day in their home cages. Eight days later, animals were rechallenged with 15 mg/kg i.p. of cocaine and stereotypy was determined. A five point rating scale was used to assess stereotypy and the rater was blind to the treatment received by each animal.

Sprague-Dawley rats = assay: Gross locomotor activity during microdialysis (infrared motion sensor); details: GVG, during the 2.5 hour pretreatment interval
From the text: In parallel to the quantitative estimates of dopamine concentration, the locomotor response of these animals to stimulant administration was simultaneously quantified using an infrared motion sensor. This infrared optical proximity detector monitored movement of the gimbaled arm, an integral component of the freely moving system. The digital output of the detector was interfaced with an IBM personal computer and programmed to count both positive and negative arm deflections. […] Locomotor activity was then expressed as the number of deflections per sample interval.

[3] = tested on: extracellular DA in the NACC; assay: Microdialysis: methamphetamine-induced increases in NACC DA; assay type: in vivo, rats; details: Rattus norvegicus
From the text: All animals were used under an IACUC-approved protocol and with strict adherence to the NIH guidelines. Adult male Sprague-Dawley rats (200-300 g, Taconic Farms), housed in the animals care facility under 12:12 light/dark conditions, were placed into 6 groups (n=5-9), anesthetized and siliconized guide cannulae were stereotactically implanted into the right NACC (2.0 mm anterior and 1.0 mm lateral to bregms, and 7.0 mm ventral to the cortical surface) at least 4 days prior to study. Microdialysis probes (2.0 mm, Bioanalytical Systems, BAS, West Lafayette, Ind.) were positioned within the guide cannulae and artificial cerebrospinal fluid (ACSF, 155.0 mM NA^−, 1.1 mM Ca^2−, 2.9 mM K^−, 132.76 mM Cl^−, and 0.83 mM Mg^2−) was administered through the probe using a CMA/100 microinfusion pump (BAS) at a flow rate of 2.0 μl/min. Animals were placed in bowls, and probes were inserted and flushed with ACSF overnight. On the day of the study, a minimum of three samples were injected to determine baseline stability. Samples were collected for 20 min. and injected on-line (CMA/160, BAS). The average Dopamine concentration of these three stable samples was defined as control (100%), and all subsequent treatment values were transformed to a percentage of that control. […] The high performance liquid chromatography (HPLC) system consists of a BAS reverse-phase column (3.0 μC-18), a BAS LC-4C electrochemical transducer with a dual/glassy carbon electrode set at 650 mV, a computer that analyzes data on-line using a commercial software package (Chromograph Bioanalytical Systems), and a dual pen chart recorder. The mobile phase (flow rate 1.0 ml/min) consisted of 7.0% methanol, 50 mM sodium phosphate monobasic, 1.0 mM sodium octyl sulfate, and 0.1 mm […], pH 4.0. DA eluted at 7.5 min. Upon completion of the study, animals were decapitated and frozen sections were obtained for probe placement verification.
Methamphetamine at a dose of 1.25 mg/kg i.p. and 2.5 mg/kg i.p. was administered to the animals. It was noted that methamphetamine elevated extracellular DA concentrations in the NACC by approximately 2500% over basal levels, 100 minutes following administration of 2.5 mg/kg and approximately 1500% over basal levels following administration of 1.25 mg/kg (FIG. 6). DA returned to basal levels approximately 200 minutes following administration.

[4] = acquisition, 75 mg/kg GVG 2.5 hours prior to cocaine 20 mg/kg
[5] = acquisition, 75 mg/kg GVG/Saline pairing
[6] = acquisition, 112 mg/kg GVG 2.5 hours prior to cocaine 20 mg/kg
[7] = acquisition, 112 mg/kg GVG/Saline pairing
[8] = acquisition, 150 mg/kg GVG 2.5 hours prior to cocaine 20 mg/kg
[9] = acquisition, 150 mg/kg GVG/Saline pairing
[10] = acquisition, 300 mg/kg GVG 2.5 hours prior to cocaine 20 mg/kg
[11] = acquisition, 300 mg/kg GVG/Saline pairing
[12] = expression, Saline/Cocaine pairings, GVG 75 mg/kg on test day
[13] = expression, Saline/Cocaine pairings, GVG 112 mg/kg on test day
[14] = expression, Saline/Cocaine pairings, GVG 150 mg/kg on test day
[15] = expression, Saline/Cocaine pairings, GVG 300 mg/kg on test day
[16] = expression, Saline/Saline pairings, GVG 112 mg/kg on test day
[17] = expression, Saline/Saline pairings, GVG 150 mg/kg on test day
[18] = expression, Saline/Saline pairings, GVG 300 mg/kg on test day

C=CC(N)CCC(=O)O (racemic) [GVG, 4-amino-5-hexanoic acid]
acquisition and expression of cocaine-induced CPP (male Sprague-Dawley rats [1]; GVG 75 mg/kg, cocaine 20 mg/kg): not
Time spent in chambers, Paired (male Sprague-Dawley rats [1]; [4]): 9.1 ± 1.1 min
Time spent in chambers, Unpaired (male Sprague-Dawley rats [1]; [4]): 5.9 ± 1.2 min
Time spent in chambers, Paired (male Sprague-Dawley rats [1]; [5]): 7.3 ± 0.5 min
Time spent in chambers, Unpaired (male Sprague-Dawley rats [1]; [5]): 7.7 ± 0.6 min
Time spent in chambers, Paired (male Sprague-Dawley rats [1]; [6]): 8.2 ± 0.5 min
Time spent in chambers, Unpaired (male Sprague-Dawley rats [1]; [6]): 6.8 ± 0.5 min
Time spent in chambers, Paired (male Sprague-Dawley rats [1]; [7]): 7.6 ± 0.6 min
Time spent in chambers, Unpaired (male Sprague-Dawley rats [1]; [7]): 7.4 ± 0.6 min
Time spent in chambers, Paired (male Sprague-Dawley rats [1]; [8]): 7.9 ± 0.8 min
Time spent in chambers, Unpaired (male Sprague-Dawley rats [1]; [8]): 7.1 ± 0.8 min
Time spent in chambers, Paired (male Sprague-Dawley rats [1]; [9]): 7.8 ± 0.6 min
Time spent in chambers, Unpaired (male Sprague-Dawley rats [1]; [9]): 7.2 ± 0.6 min
Time spent in chambers, Paired (male Sprague-Dawley rats [1]; [10]): 7.6 ± 0.7 min
Time spent in chambers, Unpaired (male Sprague-Dawley rats [1]; [10]): 7.2 ± 0.7 min
Time spent in chambers, Paired (male Sprague-Dawley rats [1]; [11]): 7.2 ± 0.4 min
Time spent in chambers, Unpaired (male Sprague-Dawley rats [1]; [11]): 7.8 ± 0.4 min
Time spent in chambers, Paired (male Sprague-Dawley rats [1]; [12]): 10.6 ± 0.6^3 min
Time spent in chambers, Unpaired (male Sprague-Dawley rats [1]; [12]): 4.4 ± 0.9 min
Time spent in chambers, Paired (male Sprague-Dawley rats [1]; [13]): 8.1 ± 0.7 min
Time spent in chambers, Unpaired (male Sprague-Dawley rats [1]; [13]): 6.9 ± 0.6 min
Time spent in chambers, Paired (male Sprague-Dawley rats [1]; [14]): 7.9 ± 0.3 min
Time spent in chambers, Unpaired (male Sprague-Dawley rats [1]; [14]): 7.1 ± 0.3 min
Time spent in chambers, Paired (male Sprague-Dawley rats [1]; [15]): 7.9 ± 0.5 min
Time spent in chambers, Unpaired (male Sprague-Dawley rats [1]; [15]): 7.1 ± 0.6 min
Time spent in chambers, Paired (male Sprague-Dawley rats [1]; [16]): 7.2 ± 0.3 min
Time spent in chambers, Unpaired (male Sprague-Dawley rats [1]; [16]): 7.8 ± 0.3 min
Time spent in chambers, Paired (male Sprague-Dawley rats [1]; [17]): 7.7 ± 0.2 min
Time spent in chambers, Unpaired (male Sprague-Dawley rats [1]; [17]): 7.3 ± 1.1 min
Time spent in chambers, Paired (male Sprague-Dawley rats [1]; [18]): 7.3 ± 0.4 min
Time spent in chambers, Unpaired (male Sprague-Dawley rats [1]; [18]): 7.7 ± 0.3 min
decrease in brain stimulation reward thresholds produced by 2.5 and 5 mg/kg i.p. cocaine (male F344 rats; GVG 400 mg/kg): significantly antagonized
brain stimulation reward thresholds (male F344 rats; GVG alone): dose-dependent increase
Time spent in chambers, Paired (male Sprague-Dawley rats [2]; GVG 150 mg/kg ip / Food): 9.4 ± 0.4 min
Time spent in chambers, Unpaired (male Sprague-Dawley rats [2]; GVG 150 mg/kg ip / Food): 5.6 ± 0.5 min
Time spent in chambers, Paired (male Sprague-Dawley rats [2]; GVG 300 mg/kg ip / Food): 9.0 ± 0.5 min
Time spent in chambers, Unpaired (male Sprague-Dawley rats [2]; GVG 300 mg/kg ip / Food): 6.0 ± 0.5 min
CPP response to food (male Sprague-Dawley rats [2]; GVG 150 and 300 mg/kg): did not alter the CPP response to food
Stereotypies on Day 15 (freely moving rats; 150 mg/kg i.p. of GVG 2 hrs. before, cocaine 15 mg/kg i.p. rechallenge after sensitizing regimen): 2.3 ± 0.6
expression of cocaine-induced sensitization (freely moving rats; GVG 150 mg/kg i.p. 2.5 hours prior to the cocaine challenge): abolished the expression of cocaine-induced sensitization
Stereotypy score on Day 1 (freely moving rats; cocaine 15 mg/kg i.p., baseline of the group later given GVG (no GVG on Day 1)): 2.9 ± 0.4
gross locomotor activity (Sprague-Dawley rats): did not alter gross locomotor activity
inhibition at 300 mg/kg [3]: ~38%
inhibition at 600 mg/kg [3]: ~58%
